# In patent US8765688B2, “Anti-dandruff compositions containing peptides” (priority 2007, dated 2014):
# Numbered stars: 1 amine (or outer) side, 2 acyl side, 3 side chain; on linkers, the order of the positions; unused ones are H or OH. Bridge positions count the residues as written; N and C are the ends. Square brackets hold non-standard residues; d marks the D form. Ends that are not written are not given here. Peptide text beside a SMILES is read from it. * marks the point of attachment. Orn(4R-OH,5R-OH) = O=C([C@H](C[C@@H](O)[C@@H](O)N[*:3])N[*:1])[*:2]; hTyr(3S-OH,4S-OH) = N[C@H](C(=O)O)[C@H](O)[C@@H](O)c1ccc(O)cc1; Pro(3S-OH,4S-Me) = C[C@H]1CN[C@H](C(=O)O)[C@H]1O; Benzoyl(4-octyloxy) = CCCCCCCCOc1ccc(C(=O)*)cc1; Hyp = O=C(O)[C@@H]1C[C@@H](O)CN1
# Experiments:
# [1] = test system: Malassezia furfur; experiment: Inhibition of Malassezia furfur growth test (optical density and colony-forming units), Examples 1 and 2; format: cell-based; conditions: solution in DMSO, 25 μM; for colony-forming units: 10 μl plated out
# Procedure: Growth medium: M472-Pitysporum medium according to DSMZ
# (§1) The components were sterilized at 121° C., 1 bar superatmospheric pressure for 20 minutes.
# 2 g/l of olive oil were sterilized by filtration and, after autoclaving, added to the other components.
# (§2) Since it was a two-phase medium, the complete medium was treated with sonication in order to enlarge the phase boundary.
# For agar plates, if appropriate, […] of agar agar were added to the medium.
# The growth test was carried out as follows: A shake flask with M472-Pitysporum medium was inoculated with M. furfur and incubated with shaking overnight at 30° C. and 200 rpm.
# A 96-well microtiter plate was filled with in each case 100 μl of M472-Pitysporum medium and inoculated with M. furfur suspension of the overnight culture. The M. furfur suspension was adjusted at the start of the experiment to an optical density, measured at 620 nm, of 0.02. The concentrates of the inhibitor solutions were 1 mM in water or DMSO.
# (§3) The growth of the following batches was compared by measuring the optical density:
# M. furfur suspension without the addition of an inhibitor.
# This was to exclude that an inhibition is attributable merely to the effect of the DMSO, or a false positive result being observed.
# M. furfur suspension and addition of an aqueous P18 solution with a final concentration of 25 μM.
# M. furfur suspension and addition of a P18 solution in DMSO with a final concentration of 25 μM.
# M. furfur suspension and addition of a zinc pyrithione (ZPT, Sigma-Aldrich) solution in DMSO with a final concentration of 25 μM.
# M. furfur suspension and addition of a Ketoconazole (Sigma-Aldrich) solution in DMSO with a final concentration of 25 μM.
# (§4) The microtiter plate was incubated with shaking at 30° C.
# […] The colony-forming units (CFU) were then determined by plating out 10 μl from each of the suspensions and, after incubation for 6 days, counting the colonies. The CFU was determined in order to exclude an influence of the two-phase medium and also the growth form of M. furfur on the optical density. […] The experiments were carried out at least in triple determinations and independently repeated.
# For this, the procedure was as described in Example 1. 1 mM stock solutions of the fusion peptide P18, magainin 2 and cecropin A in DMSO were prepared. The final concentrations of the peptides in the growth experiments were 25 μM. The same amount of DMSO was likewise added to the suspension without inhibitor in order to exclude a growth-inhibiting effect of the DMSO.
# The growth of the following mixtures was compared by measuring the optical density:
# This was to exclude that an inhibition is attributable merely to the effect of the DMSO.
# M. furfur suspension and addition of a magainin 2 solution in DMSO with a final concentration of 25 μM.
# M. furfur suspension and addition of a cecropin A solution in DMSO with a final concentration of 25 μM.
# M. furfur suspension and addition of a peptide P18 (SEQ ID NO3) solution in DMSO with a final concentration of 25 μM.
# [2] = test system: Malassezia furfur; conditions: cited from earlier work; for growth inhibition of M. furfur (in words): 25 μM, Lopez-Garcia et al., 2006
# [3] = test system: Candida albicans; conditions: cited from earlier work
# [4] = test system: Malassezia furfur; experiment: Growth inhibition of Malassezia furfur with equal concentrations (% by weight) of P18, Zincpyrithione, Climbazole and Ketoconazole, CFU; format: cell-based; conditions: 362 μM final conc., mean ± SD
# Procedure: (§5) Growth medium: M472-Pityrosporum medium according to DSMZ
# as §1
# (§6) 2 g/L of olive oil (sterilized by filtration and, after autoclaving, added to the other components)
# as §2
# (§7) For agar plates, if appropriate, 150 g/L of agar agar were added to the medium.
# (§8) The growth test was carried out as follows: A shake flask with M472-Pityrosporum medium was inoculated with M. furfur and incubated with shaking overnight at 30° C. and 200 rpm.
# A 96-well microtiter plate was filled with in each case 100 μl of M472-Pityrosporum medium and inoculated with M. furfur suspension of the overnight culture. The M. furfur suspension was adjusted at the start of the experiment to an optical density, measured at 600 nm, of 0.02. The concentrates of the inhibitor solutions were 1 mM in DMSO for the peptide P18 and 10 mM in DMSO for Zincpyrithione, Ketoconazole and Climbazole. The DMSO final concentrations were maintained the same in all experiments. This means that a corresponding volume of DMSO was added to the mixture in the case of a higher concentration of Zincpyrithione, Ketoconazole or Climbazole concentrate in order to ensure comparability to the mixtures containing P18.
# as §3
# M. furfur suspension and addition of P18 solution with a final concentration of 50 μM (equal to 0.0115% (w/w))
# M furfur suspension and addition of Zincpyrithione (ZPT) solution with a final concentration of 362 μM (comparison to the mixture containing 50 μM of the peptide P18)
# M furfur suspension and addition of Ketoconazole solution with a final concentration of 216 μM (comparison to the mixture containing 50 μM of the peptide P18)
# M furfur suspension and addition of Climbazole solution with a final concentration of 390 μM (comparison to the mixture containing 50 μM of the peptide P18)
# as §4
# After 24 hours of incubation, the colony-forming units (CFU) were determined by plating out 10 μl of medium from each of the suspensions on agar plates. After incubation for 6 days, the colonies on the plates were counted. The CFU was determined in order to exclude an influence of the two-phase medium and also the growth form of M. furfur on the optical density. The experiments were carried out in at least two independent experiments, each with double determination.
# [5] = test system: Malassezia furfur; experiment: Incubation times with P18 from 5 minutes to 1 hour, CFU of M. furfur, compared to Zincpyrithione; format: cell-based
# Procedure: Since growth inhibition of M. furfur by the peptide P18 (P18 peptide sequence H-KWKLFKKIPKFLHLAKKF-NH2; SEQ ID NO: 3) had so far only been analyzed over incubation times of more than one hour, now the effect of the peptide P18 within the first minutes of incubation (5 minutes, 10 minutes and 20 minutes) up to the first hour after adding to the M. furfur overnight culture was tested and compared to the reference substance Zincpyrithione (Sigma Aldrich). For this, the peptide P18 and the reference substance Zincpyrithione were used in concentrations of 100 μM, 200 μM and 500 μM. The experiments were carried out as follows:
# as §5, §1, §6, §2, §7, §8
# A 96-well microtiter plate was filled with in each case 100 μl of M472-Pityrosporum medium and inoculated with M. furfur suspension of the overnight culture. The M. furfur suspension was adjusted at the start of the experiment to an optical density, measured at 600 nm, of 0.1.
# The growth of the following batches was compared:
# M. furfur suspension and addition of the peptide P18 with a final concentration of 100 μM, plating out after 5 minutes, 10 minutes, 20 minutes and 60 minutes
# M. furfur suspension and addition of the peptide P18 with a final concentration of 200 μM plating out after 5 minutes, 10 minutes, 20 minutes and 60 minutes
# M. furfur suspension and addition of the peptide P18 with a final concentration of 500 μM plating out after 5 minutes, 10 minutes, 20 minutes and 60 minutes
# M. furfur suspension and addition of Zincpyrithione with a final concentration of 100 μM plating out after 5 minutes, 10 minutes, 20 minutes and 60 minutes
# M. furfur suspension and addition of Zincpyrithione with a final concentration of 200 μM plating out after 5 minutes, 10 minutes, 20 minutes and 60 minutes
# M. furfur suspension and addition of Zincpyrithione with a final concentration of 500 μM plating out after 5 minutes, 10 minutes, 20 minutes and 60 minutes
# as §4
# After the incubation times indicated above, the colony-forming units (CFU) were determined by plating out 50 μl from each of the suspensions and, after incubation for 6 days, counting the colonies. The CFU was determined in order to exclude an influence of the two-phase medium and also the growth form of M. furfur on the optical density. The experiments were independently repeated.
compound,measurement,setting,value
magainin 2 [reference compound],CFU,[1]; incubation time 64 h,>10 000
same,CFU,[1]; incubation time 72 h,>10 000
same,growth inhibition of M. furfur (in words),[2],comparably better effect
basic phytosphingosines,concentration inhibiting M. furfur,"[2]; Nenoff et al., 2002",6250 µg/mL
phytosphingosine salts,sensitivity of M. furfur (in words),"[2]; Nenoff et al., 2002",appeared to be resistant
"cecropin A (KWKLFKKIEKVGQNIRDGIIKAGPAVAVVGQATQIAK; ends and bridges not checked; UniProt P01507 27-63, looked up) [peptide of 37 amino acids from Hyalophora cecropia, reference compound]",CFU,[1]; incubation time 64 h,>5000
same,CFU,[1]; incubation time 72 h,>5000
"CCCCCCCCOc1ccc(C(=O)N[C@H]2C[C@@H](O)[C@@H](O)NC(=O)[C@@H]3[C@@H](O)[C@@H](C)CN3C(=O)[C@H]([C@@H](C)O)NC(=O)[C@H]([C@H](O)[C@@H](O)c3ccc(O)cc3)NC(=O)[C@@H]3C[C@@H](O)CN3C(=O)[C@H]([C@@H](C)O)NC2=O)cc1 [cilofungin] ({Benzoyl(4-octyloxy)}-[Orn(4R-OH,5R-OH)]T[Hyp][hTyr(3S-OH,4S-OH)]T[Pro(3S-OH,4S-Me)]; lactam 1-C)",inhibition of M. furfur (in words),"[2]; 0.62 μg/ml, Hanson et al. 1989",not inhibited
same,C. albicans strains that did not grow,"[3]; cilofungin concentration of 0.62 μg/ml, Hanson et al. 1989",76%
"Cecropin P1 (SWLSKTAKKLENSAKKRISEGIAIAIQGGPR; Cecropin-P1; UniProt P14661 14-44, looked up)",growth inhibition of M. furfur (in words),[2],moderate antifungal effect
phytosphingosines,concentrations inhibiting Candida albicans,"[3]; Nenoff et al., 2002",152 to 269 µg/mL
"CC(=O)N1CCN(c2ccc(OCC3COC(Cn4ccnc4)(c4ccc(Cl)cc4Cl)O3)cc2)CC1 (stereo not drawn) [Ketoconazole, reference compound]",optical density,[1]; incubation time 0 h,0
same,optical density,[1]; incubation time 16 h,0
same,colony-forming units,[1]; incubation time 16 h,80
same,optical density,[1]; incubation time 24 h,0.004
same,colony-forming units,[1]; incubation time 24 h,22
same,optical density,[1]; incubation time 40 h,0.013
same,colony-forming units,[1]; incubation time 40 h,90
"zinc pyrithione [ZPT, reference compound]",optical density,[1]; incubation time 0 h,0
same,optical density,[1]; incubation time 16 h,0
same,colony-forming units,[1]; incubation time 16 h,42
same,optical density,[1]; incubation time 24 h,0
same,colony-forming units,[1]; incubation time 24 h,22
same,optical density,[1]; incubation time 40 h,0
same,colony-forming units,[1]; incubation time 40 h,28
same,colony-forming units,[4]; incubation time 24 h,60 ± 40
same,colony-forming units,[4]; incubation time 40 h,26 ± 7
same,colony-forming units after the indicated incubation time,"[5]; final concentration 100 μM, 5 minutes",>1000
same,colony-forming units after the indicated incubation time,"[5]; final concentration 100 μM, 10 minutes",>1000
same,colony-forming units after the indicated incubation time,"[5]; final concentration 100 μM, 20 minutes",>1000
same,colony-forming units after the indicated incubation time,"[5]; final concentration 100 μM, 60 minutes",>1000
same,colony-forming units after the indicated incubation time,"[5]; final concentration 200 μM, 5 minutes",>1000
same,colony-forming units after the indicated incubation time,"[5]; final concentration 200 μM, 10 minutes",>1000
same,colony-forming units after the indicated incubation time,"[5]; final concentration 200 μM, 20 minutes",>1000
same,colony-forming units after the indicated incubation time,"[5]; final concentration 200 μM, 60 minutes",>1000
same,colony-forming units after the indicated incubation time,"[5]; final concentration 500 μM, 5 minutes",>1000
same,colony-forming units after the indicated incubation time,"[5]; final concentration 500 μM, 10 minutes",>1000
same,colony-forming units after the indicated incubation time,"[5]; final concentration 500 μM, 20 minutes",>1000
same,colony-forming units after the indicated incubation time,"[5]; final concentration 500 μM, 60 minutes",>1000
